Measurements published in US10597388B2, “Pyridazinone herbicides” (FMC CORPORATION, priority 2014, dated 2020).

Experiments:
Assay in all cases: Test C greenhouse herbicide test, pre- and postemergence
Format in all cases: in vivo
[1] = tested on: ryegrass, Italian (Italian ryegrass, Lolium multiflorum)
In short: (§1)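 Visual ratings on a 0 to 100 scale (0 = no effect, 100 = complete control) versus untreated controls, scored 13–15 d after treatment. Soil-applied preemergence to seeded loam/sand; foliar postemergence to 1- to 4-leaf plants (2–18 cm) in peat-vermiculite mix; compounds formulated in solvent plus surfactant.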

[2] = tested on: blackgrass (Alopecurus myosuroides)
In short: as §1

[3] = tested on: lambsquarters (Chenopodium album)
In short: as §1

corn (Zea mays) = tested on: corn (Zea mays)
In short: as §1

[4] = tested on: nutsedge, yellow (yellow nutsedge, Cyperus esculentus)
In short: as §1

[5] = tested on: foxtail, giant (giant foxtail, Setaria faberii)
In short: as §1

[6] = tested on: oilseed rape (Brassica napus)
In short: as §1

[7] = tested on: barnyardgrass (Echinochloa crus-galli)
In short: as §1

[8] = tested on: galium (catchweed bedstraw, Galium aparine)
In short: as §1

[9] = tested on: ragweed (common ragweed, Ambrosia elatior)
In short: as §1

[10] = tested on: crabgrass, large (large crabgrass, Digitaria sanguinalis)
In short: as §1

soybean (Glycine max) = tested on: soybean (Glycine max)
In short: as §1

[11] = tested on: velvetleaf (Abutilon theophrasti)
In short: as §1

[12] = tested on: morningglory (Ipomoea coccinea)
In short: as §1

[13] = tested on: waterhemp (common waterhemp, Amaranthus rudis)
In short: as §1

[14] = Postemergence, 31 g ai/ha, 0 to 100 scale (0 no effect, 100 complete control)
[15] = Postemergence, 125 g ai/ha, scale 0 to 100, 0 is no effect, 100 is complete control
[16] = Postemergence, 250 g ai/ha, scale 0 to 100, 0 no effect, 100 complete control, 13 to 15 d
[17] = Preemergence, 31 g ai/ha, scale 0 to 100, 0 is no effect, 100 is complete control
[18] = Preemergence, 62 g ai/ha, scale 0 to 100, 0 is no effect, 100 is complete control
[19] = Preemergence, 125 g ai/ha, scale 0 to 100, 0 is no effect, 100 is complete control
[20] = Preemergence, 250 g ai/ha, scale 0 to 100, 0 no effect, 100 complete control
[21] = postemergence, 62 g ai/ha, scale 0 to 100, 0 no effect, 100 complete control

Question: Which results are given for `COC(=O)Oc1c(C)nn(C)c(=O)c1-c1c(C)sc2ccc(C)cc12` [Compound 80]?
Answer: Ryegrass, Italian plant response rating [1, 14]: 80; Plant response rating, Ryegrass, Italian [1, 15]: 85; Plant response rating, Ryegrass, Italian [1, 16]: 85; Plant response rating, Ryegrass, Italian [1, 17]: 35; Plant response rating, Ryegrass, Italian [1, 18]: 70; Plant response rating, Ryegrass, Italian [1, 19]: 90; Ryegrass, Italian plant response rating [1, 20]: 90; Ryegrass, Italian plant response rating [1, 21]: 85; Blackgrass plant response rating [2, 14]: 15; Plant response rating, Blackgrass [2, 15]: 40; Plant response rating, Blackgrass [2, 16]: 50; Plant response rating, Blackgrass [2, 17]: 70; Plant response rating, Blackgrass [2, 18]: 80; Plant response rating, Blackgrass [2, 19]: 80; Blackgrass plant response rating [2, 20]: 90; Blackgrass plant response rating [2, 21]: 35; Lambsquarters plant response rating [3, 14]: 95; Plant response rating, Lambsquarters [3, 15]: 98; Plant response rating, Lambsquarters [3, 16]: 100; Plant response rating, Lambsquarters [3, 17]: 90; Plant response rating, Lambsquarters [3, 18]: 90; Plant response rating, Lambsquarters [3, 19]: 90; Lambsquarters plant response rating [3, 20]: 98; Lambsquarters plant response rating [3, 21]: 95; Corn plant response rating (corn (Zea mays); [14]): 0; Plant response rating, Corn (corn (Zea mays); [15]): 5; Plant response rating, Corn (corn (Zea mays); [16]): 5; Plant response rating, Corn (corn (Zea mays); [17]): 0; Plant response rating, Corn (corn (Zea mays); [18]): 10; Plant response rating, Corn (corn (Zea mays); [19]): 10; Corn plant response rating (corn (Zea mays); [20]): 25; Corn plant response rating (corn (Zea mays); [21]): 5; Nutsedge, Yellow plant response rating [4, 14]: 65; Plant response rating, Nutsedge, Yellow [4, 15]: 85; Plant response rating, Nutsedge, Yellow [4, 16]: 95; Plant response rating, Nutsedge, Yellow [4, 17]: 20; Plant response rating, Nutsedge, Yellow [4, 18]: 25; Plant response rating, Nutsedge, Yellow [4, 19]: 80; Nutsedge, Yellow plant response rating [4, 20]: 80; Nutsedge, Yellow plant response rating [4, 21]: 80; Foxtail, Giant plant response rating [5, 14]: 25; Plant response rating, Foxtail, Giant [5, 15]: 70; Plant response rating, Foxtail, Giant [5, 16]: 90; Plant response rating, Foxtail, Giant [5, 17]: 70; Plant response rating, Foxtail, Giant [5, 18]: 85; Plant response rating, Foxtail, Giant [5, 19]: 85; Foxtail, Giant plant response rating [5, 20]: 98; Foxtail, Giant plant response rating [5, 21]: 55; Oilseed Rape plant response rating [6, 14]: 5; Plant response rating, Oilseed Rape [6, 15]: 60; Plant response rating, Oilseed Rape [6, 16]: 80; Plant response rating, Oilseed Rape [6, 17]: 0; Plant response rating, Oilseed Rape [6, 18]: 30; Plant response rating, Oilseed Rape [6, 19]: 50; Oilseed Rape plant response rating [6, 20]: 0; Oilseed Rape plant response rating [6, 21]: 50; Barnyardgrass plant response rating [7, 14]: 25; Plant response rating, Barnyardgrass [7, 15]: 35; Plant response rating, Barnyardgrass [7, 16]: 35; Plant response rating, Barnyardgrass [7, 17]: 10; Plant response rating, Barnyardgrass [7, 18]: 65; Plant response rating, Barnyardgrass [7, 19]: 75; Barnyardgrass plant response rating [7, 20]: 85; Barnyardgrass plant response rating [7, 21]: 30; Galium plant response rating [8, 14]: 90; Plant response rating, Galium [8, 15]: 95; Plant response rating, Galium [8, 16]: 95; Plant response rating, Galium [8, 17]: 90; Plant response rating, Galium [8, 18]: 95; Plant response rating, Galium [8, 19]: 95; Galium plant response rating [8, 20]: 95; Galium plant response rating [8, 21]: 95; Ragweed plant response rating [9, 14]: 98; Plant response rating, Ragweed [9, 15]: 98; Plant response rating, Ragweed [9, 16]: 98; Plant response rating, Ragweed [9, 17]: 90; Plant response rating, Ragweed [9, 18]: 95; Plant response rating, Ragweed [9, 19]: 95; Ragweed plant response rating [9, 20]: 100; Ragweed plant response rating [9, 21]: 90; Crabgrass, Large plant response rating [10, 14]: 10; Plant response rating, Crabgrass, Large [10, 15]: 30; Plant response rating, Crabgrass, Large [10, 16]: 35; Plant response rating, Crabgrass, Large [10, 17]: 10; Plant response rating, Crabgrass, Large [10, 18]: 15; Plant response rating, Crabgrass, Large [10, 19]: 40; Crabgrass, Large plant response rating [10, 20]: 75; Crabgrass, Large plant response rating [10, 21]: 25; Soybean plant response rating (soybean (Glycine max); [14]): 0; Plant response rating, Soybean (soybean (Glycine max); [15]): 5; Plant response rating, Soybean (soybean (Glycine max); [16]): 20; Plant response rating, Soybean (soybean (Glycine max); [17]): 0; Plant response rating, Soybean (soybean (Glycine max); [18]): 0; Plant response rating, Soybean (soybean (Glycine max); [19]): 0; Soybean plant response rating (soybean (Glycine max); [20]): 0; Soybean plant response rating (soybean (Glycine max); [21]): 15; Velvetleaf plant response rating [11, 14]: 70; Plant response rating, Velvetleaf [11, 15]: 55; Plant response rating, Velvetleaf [11, 16]: 90; Plant response rating, Velvetleaf [11, 17]: 55; Plant response rating, Velvetleaf [11, 18]: 85; Plant response rating, Velvetleaf [11, 19]: 90; Velvetleaf plant response rating [11, 20]: 95; Velvetleaf plant response rating [11, 21]: 90; Morningglory plant response rating [12, 14]: 100; Plant response rating, Morningglory [12, 15]: 100; Plant response rating, Morningglory [12, 16]: 98; Plant response rating, Morningglory [12, 17]: 85; Plant response rating, Morningglory [12, 18]: 90; Plant response rating, Morningglory [12, 19]: 90; Morningglory plant response rating [12, 20]: 98; Morningglory plant response rating [12, 21]: 100; Waterhemp plant response rating [13, 14]: 85; Plant response rating, Waterhemp [13, 15]: 85; Plant response rating, Waterhemp [13, 16]: 95; Plant response rating, Waterhemp [13, 17]: 100; Plant response rating, Waterhemp [13, 18]: 100; Plant response rating, Waterhemp [13, 19]: 100; Waterhemp plant response rating [13, 20]: 100; Waterhemp plant response rating [13, 21]: 80
